Laboratory results taken from patent EP1222242B1, “CLEANING AGENTS WHICH CONTAIN SURFACTANTS AND ENZYME INHIBITORS” (Henkel Kommanditgesellschaft auf Aktien, priority 1999, dated 2001).
Entries after “also recorded” stand apart in the source; their conditions may differ. Where a SMILES comes first, the peptide text is derived from it. The star is where a group is joined. Cbz = O=C(OCc1ccccc1)*

Legend:
Trypsin = molecular target: T1, Trypsin (Bos taurus, UniProt P00760); assay: Trypsin enzyme activity test (BAPNA substrate, absorbance at 405 nm); type: biochemical, Rind; conditions: for Hemmung von Trypsin: result in words over the tested concentration range
T1 construct: aus der vom Pankreas gebildeten Vorstufe Trypsinogen durch Abspaltung eines Hexapeptids entsteht; purchased Sigma; host or cells: bovine pancreas (Rinderpankreas)
T1 sequence (P00760 24-246): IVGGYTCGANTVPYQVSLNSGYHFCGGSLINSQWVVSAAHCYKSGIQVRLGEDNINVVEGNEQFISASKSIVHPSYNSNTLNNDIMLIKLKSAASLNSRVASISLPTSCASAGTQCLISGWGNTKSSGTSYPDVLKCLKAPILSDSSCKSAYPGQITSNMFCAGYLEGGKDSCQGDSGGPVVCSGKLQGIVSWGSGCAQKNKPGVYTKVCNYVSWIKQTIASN
From the text: (§1) Da die hauteigenen, am Desmosomenabbau beteiligten Proteasen nicht in ausreichender Menge zur Verfügung standen, dienten die Serin-Proteasen Trypsin und Chymotrypsin (Sigma) aus Rinderpankreas als Modellenzym, um die Hemmwirkung des erfindungsgemäß verwendeten Inhibitors N-CBZ-Gly-Pro-Phe-Pro-Leu, zu testen. Als Vergleich wurde auch das als t-PA-Inhibitor (tissue-type plasminogen activator) bekannte t-AMCHA [trans-4(Aminomethyl)-cyclohexancarbonsäure] getestet.
Auch der Nachweis der Trypsin-Enzymaktivität erfolgt mit einer Modifikation analog zu den Angaben im Sigma Quality Control Test Procedure-Datenblatt für Trypsin. Anstelle von Aprotinin (Reagens F) wurden hier die erfindungsgemäßen Inhibitoren eingesetzt. Hierfür wurde eine Konzentrationsreihe der Inhibitoren in Reagens E angesetzt. Die Enzymaktivität wurde durch Umsetzung des Substrates Nα-Benzoyl-DL-Arginin-p-Nitroanilin (BAPNA) zu Nα-Benzoyl-DL-Arginin und p-Nitroanilin spektrophotometrisch bestimmt. Die Absorption des proteolytisch abgespaltenen p-Nitroanilins wird bei 405 nm gemessen.
(§2) Die Reaktionskinetiken wurden je 5 Minuten bei 25 °C detektiert, wobei der lineare Anstieg der Absorption (A) pro Zeiteinheit (t) ein Maß für die Aktivität des Enzyms (ΔA/Δt) ist. Die Aktivität des Enzyms in Abwesenheit eines Proteinase-Inhibitors, (ΔA1/Δt1 ), wurde auf 100% gesetzt. Unter analogen Bedingungen wurden die Aktivitäten in Gegenwart eines Inhibitors (ΔA2/Δt2) bestimmt. Die Hemmwirkung oder Minderung der Enzymaktivität entspricht dann: 100% - (ΔA2/Δt2 )/( ΔA1/Δt1)%.

Chymotrypsin = molecular target: T2, Chymotrypsin (Bos taurus, UniProt P00766); assay: Chymotrypsin enzyme activity test (BTEE substrate, absorbance at 256 nm); type: biochemical, Rind; conditions: for Hemmung von Chymotrypsin: result in words over the tested concentration range
T2 construct: Chymotrypsin entsteht im Pankreas aus inaktiven Vorstufen, sogenannten Zymogenen, durch Einwirkung von Trypsin; purchased Sigma; host or cells: bovine pancreas (Rinderpankreas)
From the text: as §1
Der Nachweis der Chymotrypsin-Enzymaktivität erfolgt mit einer Modifikation analog zu den Angaben im Sigma Quality Control Test Procedure-Datenblatt für Chymotrypsin. Bei Ansätzen ohne Inhibitor wurden 1,42 mL Reagens A (80 mM Tris/HCl-Puffer, pH = 7,8; 25°C) zum Testansatz zugegeben. Bei Ansätzen mit Inhibitor wurden 1,32 mL Reagens A zum Testansatz zugegeben sowie 0,1 mL einer Lösung des entsprechenden Inhibitors in Reagens A (Konzentrationsreihe). Die Enzymaktivität wurde durch Umsetzung des Substrates N-Benzoyl-L-Tyrosinethylester (BTEE) zu N-Benzoyl-L-Tyrosin und Ethanol spektrophotometrisch bestimmt. Die Absorption des proteolytisch abgespaltenen N-Benzoyl-L-Tyrosins wird bei 256 nm gemessen.
as §2

[1] = test system: Desquamation des Stratum corneum; assay: Desquamation test on human skin biopsies (detergent-induced corneocyte shedding, corneocyte count); type: cell-based; conditions: for Desquamation der Humanhaut (Korneozyten-Abschuppung): result in words over the tested concentration range
From the text: Aus frischen Humanhautexplantaten (aus Mammareduktion) wurden 8mm^2-große Hautstücke ausgestanzt und mit einer Mischung aus Detergentien (Na-Dodecylsulfat, N,N-Dimethyldodecylaminoxid) in Abwesenheit und in Gegenwart der Inhibitoren behandelt. Unter dem Einfluß der Detergentien wird eine verstärkte Abschuppung (Desquamation) der Homschicht (Stratum corneum) künstlich induziert, also die Ausbildung trockener Haut im Versuch nachgeahmt. Die Anzahl abgeschuppter Hornzellen (Korneozyten) wurde unter dem Mikroskop in einer Schilling-Zählkammer bestimmt. Eine Verringerung der Korneozytenzahl weist auf eine hemmende Wirkung der getesteten potentiellen Inhibitoren hin.
Die Inhibitoren wurden in den entsprechenden Konzentrationen (vgl. Tabellen der Beispiele 7-12) im Inkubationspuffer angesetzt. Dieser bestand aus 0,1 M TRIS-HCl-Puffer (pH 8) mit 0,1 Gew.% Na-Azid und den Detergenzien Na-Dodecylsulfat (0,2 mM) und N,N-Dimethyldodecylaminoxid (8 mM) sowie EDTA (5 mM). Diese Inkubationspufferlösungen mit variierender Konzentration des Inhibitors werden nachfolgend als Testlösungen bezeichnet.
Es wurden zwei Arten von Blindkontrollen durchgeführt, eine Positiv- und eine Negativkontrolle. Für die sogenannte Positivkontrolle wurde nur der Inkubationspuffer verwendet, d. h. ohne Zusatz der Inhibitoren. Für die sogenannte Negativkontrolle wurde eine 5 mM Lösung von EDTA in TRIS-HCl-Puffer eingesetzt, d. h. ohne Zusatz der Detergentien.
Pro Reaktionsansatz wurden 0,5 mL der jeweiligen Testlösung oder des für die Blindkontrollen verwendeten Puffergemisches in verschließbaren Reaktionsgefäßen vorgelegt. Alle Ansätze wurden in vierfacher Ausfertigung durchgeführt, um die Reproduzierbarkeit der Ergebnisse zu gewährleisten.
Die Humanhaut wurde nach der Explantation in einer trockenen, sterilen Petrischale auf Kühlakkus transportiert. Nach Entfernung des Unterhautfett- und des Bindegewebes wurden mit Hilfe von sterilen Stanzen 8 mm^2-große Hautstücke präpariert. Diese wurden 15-20 min in steriler, physiologischer NaCl (0,9 %) gewaschen, zu den Reaktionsansätzen gegeben (1 Hautstück/Reaktionsansatz) und 44 Stunden bei 37° C inkubiert.
Nach Beendigung der Inkubationsphase wurden die Reaktionsgefäße 30 Sekunden auf einem Vortex-Mixer geschüttelt, um noch lose anhaftende Komeozyten von den Hautstücken abzulösen. Die Hautstücke wurden entnommen und die verbleibende Dispersion wurde 8 Minuten bei 11.000U/min zentrifugiert, um die Korneozyten zu isolieren. Der detergenshaltige Überstand (0,4 mL) wurde verworfen und der Rückstand mit 0,4 ml Aqua dest. gewaschen. Nach nochmaligem Zentrifugieren wurde der Überstand (0.4 mL) wiederum verworfen, das verbleibende Zellpellet in 0,4 mL Aqua dest. aufgenommen und die abgelösten Korneozyten in einer Schillingzählkammer unter einem Lichtmikroskop ausgezählt.
Nachfolgende Tabellen geben eine Zusammenstellung über die Anzahl abgelöster Korneozyten: • nach Behandlung der Haut-Biopsien mit einem Detergentiengemisch in Abwesenheit der Inhibitoren (Positivkontrolle) • nach Behandlung der Haut-Biopsien mit einer Pufferlösung in Abwesenheit der Detergentien und Inhibitoren (Negativkontrolle) • nach Behandlung der Haut-Biopsien mit einem Detergentiengemisch, welches die Inhibitoren in variierender Konzentration enthält.

[2] = inhibitor concentration 0,03 % (w/v), 25 °C
[3] = inhibitor 0,1 % (w/v), corneocyte count, positive control = 100 %, 44 h, 37° C
[4] = inhibitor 0,5 % (w/v), corneocyte count, positive control = 100 %, 44 h, 37° C
[5] = inhibitor concentration 0,01 % (w/v), 25 °C
[6] = inhibitor concentration 0,05 % (w/v), 25 °C
[7] = inhibitor concentration 0,001 % (w/v), 25 °C
[8] = inhibitor concentration 0,005 % (w/v), 25 °C
[9] = Homo sapiens, pH 8, inhibitor 0,1 % (w/v), corneocyte count, positive control = 100 %, 44 h, 37° C, read-out: Desquamation an Humanhaut ex vivo
[10] = Homo sapiens, pH 8, inhibitor 0,5 % (w/v), corneocyte count, positive control = 100 %, 44 h, 37° C, read-out: Desquamation an Humanhaut ex vivo
[11] = Homo sapiens, pH 8, inhibitor 1,0 % (w/v), corneocyte count, positive control = 100 %, 44 h, 37° C, read-out: Desquamation an Humanhaut ex vivo
[12] = inhibitor concentration 0,1 % (w/v), 25 °C
[13] = inhibitor concentration 0,5 % (w/v), 25 °C

Compound	Hemmwirkung (Minderung der Trypsin-Aktivität) (Trypsin; [5])	Hemmwirkung (Minderung der Chymotrypsin-Aktivität) (Chymotrypsin; [5])	Hemmwirkung (Minderung der Chymotrypsin-Aktivität) (Chymotrypsin; [7])	Hemmwirkung (Minderung der Chymotrypsin-Aktivität) (Chymotrypsin; [12])	Hemmung von Trypsin (Trypsin)	Hemmung von Chymotrypsin (Chymotrypsin)	Desquamation an Humanhaut ex vivo [1, 3]	Desquamation an Humanhaut ex vivo [1, 4]	Desquamation der Humanhaut (Korneozyten-Abschuppung) [1]	Hemmwirkung (Minderung der Trypsin-Aktivität) (Trypsin; [7])	Hemmwirkung (Minderung der Chymotrypsin-Aktivität) (Chymotrypsin; [6])	activity at 0.1 % [1, 9]	activity at 0.5 % [1, 10]	activity at 1 % [1, 11]	also measured
CC(C)CC(NC(=O)C1CCCN1C(=O)C(Cc1ccccc1)NC(=O)C1CCCN1C(=O)CNC(=O)OCc1ccccc1)C(=O)O (stereo not drawn) [N-CBZ-GPFPL, N-CBZ-Gly-Pro-Phe-Pro-Leu] (Cbz-GPFPL-OH; configuration not given here)					nicht beeinträchtigt	spezifische Hemmung	93%	51%	signifikant reduziert						Hemmwirkung (Minderung der Trypsin-Aktivität) (Trypsin; [2]): keine Hemmwirkung messbar; Hemmwirkung (Minderung der Trypsin-Aktivität) (Trypsin; inhibitor concentration 0,06 % (w/v), 25 °C): -"-; Hemmwirkung (Minderung der Trypsin-Aktivität) (Trypsin; inhibitor concentration 0,33 % (w/v), 25 °C): -"-; inhibition at 0.06 % (Chymotrypsin; 5 min, pH 7.8, inhibitor concentration 0,06 % (w/v), 25 °C, read-out: Hemmwirkung (Minderung der Chymotrypsin-Aktivität)): 7%; inhibition at 0.33 % (Chymotrypsin; 5 min, pH 7.8, inhibitor concentration 0,33 % (w/v), 25 °C, read-out: Hemmwirkung (Minderung der Chymotrypsin-Aktivität)): 27%; Hemmwirkung (Minderung der Chymotrypsin-Aktivität) (Chymotrypsin; [2]): 2%; Reduktion der Abschuppung (Desquamation der Haut) ([1]; inhibitor 0,5 %, result in words): um die Hälfte reduziert
NCCc1ccc(S(=O)(=O)F)cc1 [Pefabloc® SC, 4-(2-Aminoethyl)phenylsulfonylfluorid]					starke, konzentrationsabhängige Hemmung	starke, konzentrationsabhängige Hemmung	34%	11%							Hemmung von Trypsin (Trypsin; listed as Pefabloc®): effektiver Inhibitor; Hemmung von Chymotrypsin (Chymotrypsin; listed as Pefabloc®): effektiver Inhibitor; Abschuppung reduziert um ([1]; inhibitor 0,5 %, reduction versus positive control): ~90%
OB(O)c1ccccc1 [Phenylboronsäure]	Keine Hemmung meßbar	9%	keine Hemmung meßbar		nur mäßig beeinträchtigt	deutliche, konzentrationsabhängige Hemmung			signifikant reduziert	Keine Hemmung meßbar	45%	60%			Hemmwirkung (Minderung der Trypsin-Aktivität) (Trypsin; [6]): 5%; Hemmwirkung (Minderung der Trypsin-Aktivität) (Trypsin; [8]): Keine Hemmung meßbar; activity at 0.05 % ([1]; Homo sapiens, pH 8, inhibitor 0,05 % (w/v), corneocyte count, positive control = 100 %, 44 h, 37° C, read-out: Desquamation an Humanhaut ex vivo): 89%; Reduktion der Abschuppung der Korneozyten ([1]; inhibitor 0,1 %, result in words): siginifikant reduzieren
Borsäure	Keine Hemmwirkung meßbar	keine Hemmwirkung meßbar	keine Hemmwirkung meßbar	23%	schwache Hemmung; also recorded: nur schwach	schwache Hemmung; also recorded: nur schwach	50%		signifikant reduziert	Keine Hemmwirkung meßbar					Hemmwirkung (Minderung der Trypsin-Aktivität) (Trypsin; [12]): 6%; Hemmwirkung (Minderung der Trypsin-Aktivität) (Trypsin; [13]): 23%; Desquamation an Humanhaut ex vivo ([1]; inhibitor 0,01 % (w/v), corneocyte count, positive control = 100 %, 44 h, 37° C): 86%; Desquamation an Humanhaut ex vivo ([1]; inhibitor 0,2 % (w/v), corneocyte count, positive control = 100 %, 44 h, 37° C): 47%; Reduktion der Abschuppung der Korneozyten ([1]; inhibitor 0,2 %, result in words): halbieren

More lines, main results first:

Hemmwirkung (Minderung der Trypsin-Aktivität) (Trypsin; [5])	Hemmwirkung (Minderung der Chymotrypsin-Aktivität) (Chymotrypsin; [5])	Hemmwirkung (Minderung der Chymotrypsin-Aktivität) (Chymotrypsin; [7])	Hemmwirkung (Minderung der Chymotrypsin-Aktivität) (Chymotrypsin; [12])	Compound	Hemmung von Trypsin (Trypsin)	Hemmung von Chymotrypsin (Chymotrypsin)	Desquamation an Humanhaut ex vivo [1, 3]	Desquamation an Humanhaut ex vivo [1, 4]	Desquamation der Humanhaut (Korneozyten-Abschuppung) [1]	Hemmwirkung (Minderung der Trypsin-Aktivität) (Trypsin; [7])	Hemmwirkung (Minderung der Chymotrypsin-Aktivität) (Chymotrypsin; [6])	activity at 0.1 % [1, 9]	activity at 0.5 % [1, 10]	activity at 1 % [1, 11]	also measured
61%		keine Hemmwirkung messbar		O=C(/C=C/c1ccc(O)c(O)c1)O[C@H](Cc1ccc(O)c(O)c1)C(=O)O [Rosmarinsäure]	starke, konzentrationsabhängige Hemmung	gering			konzentrationsabhängige Reduktion; also recorded: signifikant reduziert			82.5%	60%	33.8%	Hemmwirkung (Minderung der Chymotrypsin-Aktivität) (Chymotrypsin; [8]): 2%; Hemmwirkung (Minderung der Chymotrypsin-Aktivität) (Chymotrypsin; inhibitor concentration 0,0075 % (w/v), 25 °C): 7%; Desquamation an Humanhaut ex vivo ([1]; inhibitor 1,0 % (w/v), corneocyte count, positive control = 100 %, 44 h, 37° C): 33,8%
9%	keine Hemmwirkung messbar		- " -	NC[C@H]1CC[C@H](C(=O)O)CC1 [t-AMCHA, trans-4(Aminomethyl)-cyclohexancarbonsäure]	in Abhängigkeit von der Inhibitor-Konzentration beeinträchtigt	nicht beeinträchtigt			Desquamationsinhibitor mit konzentrationsabhängigem Profil; also recorded: signifikant reduziert		- " -		51.3%	44%	inhibition at 0.1 % (Trypsin; 5 min, inhibitor concentration 0,1 % (w/v), 25 °C, read-out: Hemmwirkung (Minderung der Trypsin-Aktivität)): 51%; inhibition at 0.05 % (Trypsin; 5 min, inhibitor concentration 0,05 % (w/v), 25 °C, read-out: Hemmwirkung (Minderung der Trypsin-Aktivität)): 36%; inhibition at 0.5 % (Trypsin; 5 min, inhibitor concentration 0,5 % (w/v), 25 °C, read-out: Hemmwirkung (Minderung der Trypsin-Aktivität)): 85%; inhibition at 1 % (Trypsin; 5 min, inhibitor concentration 1,0 % (w/v), 25 °C, read-out: Hemmwirkung (Minderung der Trypsin-Aktivität)): 93%; Hemmwirkung (Minderung der Chymotrypsin-Aktivität) (Chymotrypsin; [13]): - " -; Hemmwirkung (Minderung der Chymotrypsin-Aktivität) (Chymotrypsin; inhibitor concentration 1,0 % (w/v), 25 °C): - " -; activity at 2.5 % ([1]; Homo sapiens, pH 8, inhibitor 2,5 % (w/v), corneocyte count, positive control = 100 %, 44 h, 37° C, read-out: Desquamation an Humanhaut ex vivo): 37.1%
